This is an account of results in patent publication US7786137B2, “Bicyclic derivatives as modulators of ion channels” (Vertex Pharmaceuticals Incorporated, priority 2005, dated 2010).

Some results are limits rather than exact numbers.

NaV1.3, sequence (Q9NY46 whole entry): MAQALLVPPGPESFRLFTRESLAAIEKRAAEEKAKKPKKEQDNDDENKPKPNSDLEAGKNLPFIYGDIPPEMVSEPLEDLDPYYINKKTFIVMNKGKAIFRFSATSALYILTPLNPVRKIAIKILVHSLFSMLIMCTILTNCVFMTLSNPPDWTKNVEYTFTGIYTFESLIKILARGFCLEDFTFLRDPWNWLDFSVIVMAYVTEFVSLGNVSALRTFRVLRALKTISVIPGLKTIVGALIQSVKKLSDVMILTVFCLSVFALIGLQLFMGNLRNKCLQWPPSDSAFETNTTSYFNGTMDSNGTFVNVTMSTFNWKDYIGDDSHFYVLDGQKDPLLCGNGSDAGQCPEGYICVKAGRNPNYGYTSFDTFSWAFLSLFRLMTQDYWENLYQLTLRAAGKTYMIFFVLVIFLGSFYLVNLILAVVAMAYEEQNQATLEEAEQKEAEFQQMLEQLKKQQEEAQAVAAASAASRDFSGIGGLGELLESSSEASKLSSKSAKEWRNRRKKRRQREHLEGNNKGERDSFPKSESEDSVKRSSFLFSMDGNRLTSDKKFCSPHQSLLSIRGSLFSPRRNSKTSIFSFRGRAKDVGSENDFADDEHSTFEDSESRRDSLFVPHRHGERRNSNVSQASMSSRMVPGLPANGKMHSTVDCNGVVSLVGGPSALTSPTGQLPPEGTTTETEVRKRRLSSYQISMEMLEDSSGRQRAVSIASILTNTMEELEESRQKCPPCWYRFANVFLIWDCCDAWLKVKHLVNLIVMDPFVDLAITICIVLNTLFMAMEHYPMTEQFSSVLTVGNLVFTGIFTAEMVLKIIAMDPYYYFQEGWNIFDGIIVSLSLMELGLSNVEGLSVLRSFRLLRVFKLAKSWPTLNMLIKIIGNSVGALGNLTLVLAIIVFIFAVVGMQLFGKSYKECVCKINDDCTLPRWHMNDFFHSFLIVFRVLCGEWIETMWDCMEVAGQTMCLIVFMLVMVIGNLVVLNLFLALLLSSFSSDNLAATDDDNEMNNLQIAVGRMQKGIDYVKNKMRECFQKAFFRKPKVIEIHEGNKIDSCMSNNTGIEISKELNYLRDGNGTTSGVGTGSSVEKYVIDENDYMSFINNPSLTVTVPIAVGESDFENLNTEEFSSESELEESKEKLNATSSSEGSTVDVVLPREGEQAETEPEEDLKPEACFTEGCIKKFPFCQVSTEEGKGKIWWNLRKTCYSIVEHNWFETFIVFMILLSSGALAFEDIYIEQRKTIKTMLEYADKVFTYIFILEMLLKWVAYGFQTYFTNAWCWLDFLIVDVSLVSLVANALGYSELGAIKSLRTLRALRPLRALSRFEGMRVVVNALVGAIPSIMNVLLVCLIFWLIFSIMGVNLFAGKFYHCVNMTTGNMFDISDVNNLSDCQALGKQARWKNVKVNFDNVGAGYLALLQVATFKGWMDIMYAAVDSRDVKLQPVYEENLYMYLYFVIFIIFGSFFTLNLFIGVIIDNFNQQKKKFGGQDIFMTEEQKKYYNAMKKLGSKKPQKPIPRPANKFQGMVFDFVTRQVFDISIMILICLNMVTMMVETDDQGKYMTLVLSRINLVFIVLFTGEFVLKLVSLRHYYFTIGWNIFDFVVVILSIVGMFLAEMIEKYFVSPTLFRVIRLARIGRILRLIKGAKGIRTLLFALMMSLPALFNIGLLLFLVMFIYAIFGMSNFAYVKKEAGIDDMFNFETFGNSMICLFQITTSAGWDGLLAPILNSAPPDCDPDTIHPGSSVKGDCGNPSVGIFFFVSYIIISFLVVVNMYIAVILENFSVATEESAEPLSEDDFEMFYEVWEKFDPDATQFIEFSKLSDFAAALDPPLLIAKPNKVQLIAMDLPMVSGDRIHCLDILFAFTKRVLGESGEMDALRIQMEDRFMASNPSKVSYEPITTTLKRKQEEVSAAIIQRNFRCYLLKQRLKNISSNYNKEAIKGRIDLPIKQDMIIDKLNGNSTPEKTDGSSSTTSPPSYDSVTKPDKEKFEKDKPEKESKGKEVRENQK

This experiment addresses NaV1.3 (Homo sapiens, UniProt Q9NY46). Briefly: VIPR optical membrane potential assay, NaV1.3 inhibition. Format: cell-based. Details: expressed in transfected cells; host or cells: HEK293. The note with it: activity against NaV 1.3 channel. On the procedure: Antagonist properties of test compounds were assessed as follows. Cells expressing the NaV of interest were placed into microtiter plates. After an incubation period, the cells were stained with fluorescent dyes sensitive to the transmembrane potential. The test compounds were added to the microtiter plate. The cells were stimulated with either a chemical or electrical means to evoke a NaV dependent membrane potential change from unblocked channels, which was detected and measured with trans-membrane potential-sensitive dyes. Antagonists were detected as a decreased membrane potential response to the stimulus.
The following is an example of how NaV1.3 inhibition activity is measured using the optical membrane potential method#2. Other subtypes are performed in an analogous mode in a cell line expressing the NaV of interest.
HEK293 cells stably expressing NaV1.3 are plated into 96-well microtiter plates. After an appropriate incubation period, the cells are stained with the voltage sensitive dyes CC2-DMPE/DiSBAC2(3) as follows.
2× CC2-DMPE=20 μM CC2-DMPE: 10 mM CC2-DMPE is vortexed with an equivalent volume of 10% pluronic, followed by vortexing in required amount of HBSS containing 10 mM HEPES. Each cell plate will require 5 mL of 2× CC2-DMPE. 50 μL of 2× CC2-DMPE is to wells containing washed cells, resulting in a 10 μM final staining concentration. The cells are stained for 30 minutes in the dark at RT.
2× DISBAC2(3) with ABSC1=6 μM DISBAC2(3) and 1 mM ABSC1: The required amount of 10 mM DISBAC2(3) is added to a 50 ml conical tube and mixed with 1 μL 10% pluronic for each mL of solution to be made and vortexed together. Then HBSS/HEPES is added to make up 2× solution. Finally, the ABSC1 is added.
The 2× DiSBAC2(3) solution can be used to solvate compound plates. Note that compound plates are made at 2× drug concentration. Wash stained plate again, leaving residual volume of 50 μL. Add 50 μL/well of the 2× DiSBAC2(3) w/ABSC1. Stain for 30 minutes in the dark at RT.
The instrument comprises a microtiter plate handler, an optical system for exciting the coumarin dye while simultaneously recording the coumarin and oxonol emissions, a waveform generator, a current- or voltage-controlled amplifier, and a device for inserting electrodes in well. Under integrated computer control, this instrument passes user-programmed electrical stimulus protocols to cells within the wells of the microfilter plate.
Insert or use electrodes into each well to be assayed.
Use the current-controlled amplifier to deliver stimulation wave pulses for 3 s. Two seconds of pre-stimulus recording are performed to obtain the un-stimulated intensities. Five seconds of post-stimulation recording are performed to examine the relaxation to the resting state.
Data are analyzed and reported as normalized ratios of background-subtracted emission intensities measured in the 460 nm and 580 nm channels. Background intensities are then subtracted from each assay channel. Background intensities are obtained by measuring the emission intensities during the same time periods from identically treated assay wells in which there are no cells. The response as a function of time is then reported as the ratios obtained using the following formula: […]
The data is further reduced by calculating the initial (Ri) and final (Rf) ratios. These are the average ratio values during part or all of the pre-stimulation period, and during sample points during the stimulation period. The response to the stimulus ? =Rf/Ri is then calculated.
Control responses are obtained by performing assays in the presence of a compound with the desired properties (positive control), such as tetracaine, and in the absence of pharmacological agents (negative control). Responses to the negative (N) and positive (P) controls are calculated as above. The compound antagonist activity A is defined as:
[formula] where R is the ratio response of the test compound.
A word on the IC50: it is the concentration needed to halve the response being measured. Lower therefore signals inhibition by little substance. Take `Cc1cccc(OCC(=O)N2CCc3cc(S(=O)(=O)Nc4nccs4)ccc32)c1` [Compound 1]: the IC50 was < 2000 nM.

As for `O=C(COc1ccccc1Cl)N1CCc2cc(S(=O)(=O)Nc3nccs3)ccc21` [Compound 2], the IC50 is < 2000 nM.

In turn, `O=C(c1ccc(F)cc1)N1Cc2ccc(S(=O)(=O)Nc3nccs3)cc2C1` [Compound 3] displayed an IC50 of 2000 to 5000 nM. For `Cc1ccc(F)c(C(=O)N2CCc3cc(S(=O)(=O)Nc4nccs4)ccc32)c1` [Compound 4] the value was > 5000 nM. As for `COc1ccc(CC(=O)N2CCc3cc(S(=O)(=O)Nc4nccs4)ccc32)cc1` [Compound 5], the IC50 was < 2000 nM. The figure for `O=C(c1ccc(F)c(F)c1F)N1CCc2cc(S(=O)(=O)Nc3ncns3)ccc21` [Compound 6] is 2000 to 5000 nM.

As for `Cc1ccc(C(=O)N2CCc3cc(S(=O)(=O)Nc4nccs4)ccc32)cc1` [Compound 7], the IC50 lay within 2000 to 5000 nM. `CC(Oc1ccccc1)C(=O)N1CCc2ccc(S(=O)(=O)Nc3nccs3)cc2C1` (centres unmarked) [Compound 8]: the IC50 was > 5000 nM. The figure for `CC(C)(Oc1ccc(Cl)cc1)C(=O)N1CCc2cc(S(=O)(=O)Nc3nccs3)ccc21` [Compound 9] is < 2000 nM; for `COc1ccccc1CC(=O)N1CCc2cc(S(=O)(=O)Nc3nccs3)ccc21` [Compound 10] it is 2000 to 5000 nM.

Take `O=C(COc1cccc(Cl)c1)N1Cc2ccc(S(=O)(=O)Nc3nccs3)cc2C1` [Compound 11]: the IC50 is < 2000 nM.

Consider `O=C(COc1ccccc1)N1CCc2ccc(S(=O)(=O)Nc3nccs3)cc2C1` [Compound 12], for which the IC50 was > 5000 nM. Take `O=C(COc1ccc(F)c(Cl)c1)N1CCc2cc(S(=O)(=O)Nc3ncns3)ccc21` [Compound 13]: the IC50 is < 2000 nM. For `O=C(COc1ccc(F)cc1)N1CCc2cc(S(=O)(=O)Nc3nccs3)ccc21` [Compound 14] the value was < 2000 nM. The figure for `O=C(CN1CCc2ccccc2C1)N1CCCc2cc(S(=O)(=O)Nc3nccs3)ccc21` [Compound 15] is 2000 to 5000 nM; for `Cc1ccc(OCC(=O)N2CCc3ccc(S(=O)(=O)Nc4nccs4)cc3C2)c(C)c1` [Compound 16] it is < 2000 nM; for `CC(C(=O)N1Cc2ccc(S(=O)(=O)Nc3nccs3)cc2C1)n1ccc2ccccc21` (centres unmarked) [Compound 17] it is < 2000 nM. The figure for `COc1cccc(CCC(=O)n2ccc3cc(S(=O)(=O)Nc4nccs4)ccc32)c1` [Compound 18] is < 2000 nM. As to `O=C(COc1ccc(Cl)c(Cl)c1)n1ccc2cc(S(=O)(=O)Nc3nccs3)ccc21` [Compound 19], the IC50 was > 5000 nM. For `C[C@H](C(=O)N1CCc2cc(S(=O)(=O)Nc3nccs3)ccc21)n1ccc2ccccc21` [Compound 20] the value was < 2000 nM; for `CC(Oc1cc(Cl)ccc1Cl)C(=O)N1CCc2cc(S(=O)(=O)Nc3nccs3)ccc21` (centres unmarked) [Compound 21], < 2000 nM; for `O=S(=O)(Nc1nccs1)c1ccc2c(c1)CCN2CCNc1cnc2ccccc2c1` [Compound 22], > 5000 nM.

`O=C(COc1ccc(Cl)cc1)N1CCc2ccc(S(=O)(=O)Nc3nccs3)cc2C1` [Compound 23]: the IC50 was > 5000 nM.

On to `O=C(CNCc1ccccc1)N1CCc2cc(S(=O)(=O)Nc3nccs3)ccc21` [Compound 24], for which the IC50 is > 5000 nM.

With `Cc1ccc(OCC(=O)N2CCc3ccc(S(=O)(=O)Nc4nccs4)cc3C2)cc1` [Compound 25], the IC50 was > 5000 nM.

In the case of `Cc1ccc(CC(=O)N2CCc3cc(S(=O)(=O)Nc4nccs4)ccc32)cc1` [Compound 26], the IC50 is < 2000 nM. For the compound `O=C(COc1ccc(F)c(Cl)c1)N1Cc2ccc(S(=O)(=O)Nc3nccs3)cc2C1` [Compound 27], the IC50 was < 2000 nM.

In the case of `CN(CC(=O)N1CCc2cc(S(=O)(=O)Nc3nccs3)ccc21)c1ccncc1` [Compound 29], the concentration for half-maximal inhibition (IC50) was > 5000 nM. The figure for `O=C(COc1ccc(F)c(Cl)c1)N1CCc2cc(S(=O)(=O)Nc3nccs3)ccc21` [Compound 30] is < 2000 nM. For `COc1cccc(CC(=O)N2CCc3cc(S(=O)(=O)Nc4ncns4)ccc32)c1` [Compound 31] the value was < 2000 nM; for `O=C(CCCOc1ccc(Cl)c(Cl)c1)N1Cc2ccc(S(=O)(=O)Nc3ncns3)cc2C1` [Compound 32], < 2000 nM. With `O=C(CCCOc1ccc(Cl)cc1Cl)N1CCc2cc(S(=O)(=O)Nc3ncns3)ccc21` [Compound 33], the IC50 was < 2000 nM. The figure for `O=C(c1ccccc1F)N1CCc2cc(S(=O)(=O)Nc3ncns3)ccc21` [Compound 34] is > 5000 nM.

`Cc1ccccc1CNCC(=O)N1CCc2cc(S(=O)(=O)Nc3nccs3)ccc21` [Compound 35] displayed an IC50 of 2000 to 5000 nM. In the case of `O=C(COc1ccc(F)c(Cl)c1)N1CCCc2cc(S(=O)(=O)Nc3ncns3)ccc21` [Compound 36], the IC50 fell in the range of 2000 to 5000 nM.

For `O=C(CN1CCCc2cc(Cl)ccc21)N1Cc2ccc(S(=O)(=O)Nc3ccncn3)cc2C1` [Compound 37], the IC50 lay in the range of 2000 to 5000 nM. For `CC(Oc1ccccc1)C(=O)N1CCCc2cc(S(=O)(=O)Nc3nccs3)ccc21` (centres unmarked) [Compound 39] the value was > 5000 nM. As to `O=C(c1ccccc1Cl)N1CCc2cc(S(=O)(=O)Nc3nccs3)ccc21` [Compound 40], the IC50 was > 5000 nM.

`Cc1ccc(CNCC(=O)N2CCc3cc(S(=O)(=O)Nc4nccs4)ccc32)cc1` [Compound 41] gave an IC50 of 2000 to 5000 nM. The figure for `O=C(COc1ccc(F)cc1)N1CCc2cc(S(=O)(=O)Nc3ncns3)ccc21` [Compound 42] is < 2000 nM; for `Cc1cccc(CC(=O)N2CCc3cc(S(=O)(=O)Nc4nccs4)ccc32)c1` [Compound 43] it is < 2000 nM; for `O=C(CN1CCc2ccc(Cl)cc2C1)N1CCc2cc(S(=O)(=O)Nc3nccs3)ccc21` [Compound 44] it is < 2000 nM. The figure for `O=C(COc1ccnc2c(C(F)(F)F)cccc12)N1CCc2ccc(S(=O)(=O)Nc3nncs3)cc2C1` [Compound 45] is > 5000 nM; for `Cc1ccc(C(=O)N2CCc3cc(S(=O)(=O)Nc4nccs4)ccc32)cc1` [Compound 47] it is < 2000 nM.

With `O=C(CNc1ccc(F)c(Cl)c1)N1CCc2cc(S(=O)(=O)Nc3nccs3)ccc21` [Compound 48], the IC50 is 2000 to 5000 nM. In the case of `O=C(COc1ccc(Cl)cc1)N1CCc2cc(S(=O)(=O)Nc3nccs3)ccc21` [Compound 49], the IC50 is < 2000 nM. For `O=C(c1cccc(Cl)c1)N1CCc2cc(S(=O)(=O)Nc3nccs3)ccc21` [Compound 50] the value was < 2000 nM; for `O=C(Cc1ccc(OC(F)(F)F)cc1)N1CCc2cc(S(=O)(=O)Nc3nccs3)ccc21` [Compound 51], < 2000 nM.

`O=C(COc1ccc(OC(F)(F)F)cc1)N1CCc2ccc(S(=O)(=O)Nc3nccs3)cc2C1` [Compound 52]: the IC50 was > 5000 nM.

`O=C(COc1cccc(Cl)c1)N1CCCc2cc(S(=O)(=O)Nc3ncns3)ccc21` [Compound 53]: the IC50 lay within 2000 to 5000 nM. In the case of `O=C(N1CCc2cc(S(=O)(=O)Nc3nccs3)ccc21)C1(c2ccccc2)CC1` [Compound 54], the IC50 was < 2000 nM. Compound `COc1cc(C(=O)n2ccc3cc(S(=O)(=O)Nc4nccs4)ccc32)ccc1C` [Compound 55] showed an IC50 of 2000 to 5000 nM.

For `O=C(Cn1ccc2cccc(Cl)c21)N1Cc2ccc(S(=O)(=O)Nc3ccncn3)cc2C1` [Compound 56], the IC50 is < 2000 nM. In the case of `CC(C(=O)N1Cc2ccc(S(=O)(=O)Nc3ncns3)cc2C1)N1CCCc2cc(Cl)ccc21` (centres unmarked) [Compound 57], the IC50 is < 2000 nM.

Consider `C[C@H](C(=O)N1Cc2ccc(S(=O)(=O)Nc3ccc(Cl)nn3)cc2C1)n1ccc2c(F)cccc21` [Compound 58], for which the IC50 is > 5000 nM. For `O=C(ON1Cc2ccc(S(=O)(=O)Nc3nccs3)cc2C1)c1cccc(C(F)(F)F)c1` [Compound 59] the value was < 2000 nM.
